# What was measured:
# ICR mice = experiment: acute intravenous toxicity (LD50) in ICR mice, 7-day observation; type: in vivo; conditions: for Deaths, Delayed (1-24 hr) / Deaths, Delayed (1-7 days) / Deaths, Immediate (0-1 hr) / Deaths, Total / Body Weight Change: 0.68 M; for Deaths, Total: deaths/animals
# Description: The acute intravenous toxicity of the compound of Example II was determined as follows: ICR mice, at 1 to 4 per dose level, received single intravenous injections of the test substance via a lateral tail vein at the rate of approximately 1 ml/minute. The test substances were at concentrations chosen to result in dose volumes of 5 to 75 ml/kg body weight. Dosing began at a volume of 10 ml/kg. Dose adjustments up or down were made to closely bracket the estimated LD50 with 4 animals per group (2 males and 2 females). Observations of the mice were recorded at times 0, 0.5, 1,2,4 and 24 hours and once daily thereafter for up to 7 days post injection. On the 7th day post injection, the mice were euthanized, weighed and necropsied. Abnormal tissues were noted. At this time a decision was made as to whether any histopathology was to be performed and whether or not the tissues should be retained. Necropsies were also performed on mice expiring after 24 hours post-injection, except for dead mice found on the weekends. The LD50 values, along with 95% CI were calculated using a modified Behrens-Reed-Meunch method. The results for the complex of Example II are reported below:
# Sex and Weight Range of Mice: Males(18.0-20.3 g) Females (19.0-21.7 g).
# [1] = T1 and T2 relaxivity, RADX (10 megahertz) NMR analyzer, 37° C.; type: physicochemical
# Description: T1 and T2 relaxivity curves of the complex of Example II were obtained using a RADX (10 megahertz) NMR analyzer. The RADX analyzer was thermally stabilized at 37° C. before performing any T1 or T2 measurements. Overall range tuning and mid-range calibration were performed on a 37° C. warmed T1 standard at the beginning of the experiment, according to manufacturer's instructions. Subsequent to calibration, T1 standards were tested to verify calibration and linearity.
# Ten millimolar solutions of the complex were prepared in sterile water for injection ("SWFI") and in 4% human serum albumin ("HSA")/0.9% NaCl. A series of lower concentrations (0.25, 0.50, 1.0, 2.5 and 5.0 mM) were prepared to form a concentration curve. A sample of each prepared concentration was warmed to 37° C. in an NMR sample tube prior to assay. Triplicate T1 and T2 values were obtained on each dilution.
# Separate linear regressions were determined using the reciprocal T1 and T2 mean values for the complex diluted in SWFI and 4% HSA. The relaxivity curves were generated by plotting the reciprocal T1 or T2 value against concentration. The following relaxation rates were determined for the complex of Example II: […]
# solubility in water = type: physicochemical; conditions: glassy solid
# Description: A 15% excess of the bis(2-methoxyethylamide) of EDTA produced by the procedure described in Example XI (1.1 g, 0.0026 mol) was dissolved in water (10 ml) and MnCO3 (0.27 g, 0.0023 mol) was added. Upon warming for 30 minutes, the solution became homogeneous. The solution was taken to dryness under reduced pressure.
smiles,measurement,setting,value
"COCCNC(=O)CN(CCN(CCN(CC(=O)[O-])CC(=O)NCCOC)CC(=O)[O-])CC(=O)[O-].[Gd+3] [Example II, {N,N""-Bis[N-(2-methoxyethyl)-carbamoylmethyl]diethylenetriamine-N,N',N""-triaceto}gadolinium (III)]","Deaths, Delayed (1-24 hr)","ICR mice; 6.8 mmol/kg i.v., ICR mice",0
same,"Deaths, Delayed (1-7 days)","ICR mice; 6.8 mmol/kg i.v., ICR mice",0
same,"Deaths, Immediate (0-1 hr)","ICR mice; 6.8 mmol/kg i.v., ICR mice",0
same,"Deaths, Total","ICR mice; 6.8 mmol/kg i.v., ICR mice",0/2
same,Body Weight Change,"ICR mice; 6.8 mmol/kg i.v., female ICR mice",+2.1 g
same,Body Weight Change,"ICR mice; 6.8 mmol/kg i.v., male ICR mice",-1.1 g
same,"Deaths, Delayed (1-24 hr)","ICR mice; 13.6 mmol/kg i.v., ICR mice",0
same,"Deaths, Delayed (1-7 days)","ICR mice; 13.6 mmol/kg i.v., ICR mice",0
same,"Deaths, Immediate (0-1 hr)","ICR mice; 13.6 mmol/kg i.v., ICR mice",0
same,"Deaths, Total","ICR mice; 13.6 mmol/kg i.v., ICR mice",0/2
same,Body Weight Change,"ICR mice; 13.6 mmol/kg i.v., female ICR mice",+1.4 g
same,Body Weight Change,"ICR mice; 13.6 mmol/kg i.v., male ICR mice",+1.6 g
same,"Deaths, Delayed (1-24 hr)","ICR mice; 20.4 mmol/kg i.v., ICR mice",0
same,"Deaths, Delayed (1-7 days)","ICR mice; 20.4 mmol/kg i.v., ICR mice",0
same,"Deaths, Immediate (0-1 hr)","ICR mice; 20.4 mmol/kg i.v., ICR mice",1
same,"Deaths, Total","ICR mice; 20.4 mmol/kg i.v., ICR mice",1/4
same,Body Weight Change,"ICR mice; 20.4 mmol/kg i.v., female ICR mice",-3.2 g
same,Body Weight Change,"ICR mice; 20.4 mmol/kg i.v., male ICR mice",-1.1 g
same,"Deaths, Delayed (1-24 hr)","ICR mice; 27.2 mmol/kg i.v., ICR mice",0
same,"Deaths, Immediate (0-1 hr)","ICR mice; 27.2 mmol/kg i.v., ICR mice",2
same,"Deaths, Total","ICR mice; 27.2 mmol/kg i.v., ICR mice",4/4
same,"Deaths, Immediate (0-1 hr)","ICR mice; 34.0 mmol/kg i.v., ICR mice",4
same,"Deaths, Total","ICR mice; 34.0 mmol/kg i.v., ICR mice",4/4
same,body weight gain of surviving mice,"ICR mice; 7-day post-injection period, i.v., ICR mice",failed to gain weight
same,95% Confidence Limits of LD50,"ICR mice; ICR mice, single i.v., 7 days",17.4 to 29.0 mmol/kg
same,LD50,"ICR mice; ICR mice, single i.v., 7 days post injection, modified Behrens-Reed-Meunch method",22.5 mmol/kg
same,gross organ abnormality at necropsy,ICR mice; one female dosed with 20.4 mmol/kg i.v.,"a ""pale"" colored liver"
same,"gross organ abnormality at necropsy, other mice","ICR mice; other mice at 20.4 mmol/kg or lower, i.v.",No other mice at 20.4 mmol/kg or lower showed similar abnormalities
same,order of i.v. toxicity,"ICR mice; preliminary tests, ICR mice",low order of i.v. toxicity
same,T1 Relaxation Rate,[1]; 4% HSA/0.9% NaCl,4400 M⁻¹ s⁻¹
same,T2 Relaxation Rate,[1]; 4% HSA/0.9% NaCl,6380 M⁻¹ s⁻¹
same,T1 Relaxation Rate,[1]; H2O (SWFI),4690 M⁻¹ s⁻¹
same,T2 Relaxation Rate,[1]; H2O (SWFI),4810 M⁻¹ s⁻¹
"COCCNC(=O)CN(CCN(CC(=O)[O-])CC(=O)NCCOC)CC(=O)[O-].[Mn+2] [Example X, {N,N'-Bis[N-(2-methoxyethyl)carbamoyl-methyl]-ethylenediamine-N,N'-diaceto}manganese(II)]",solubility in water,solubility in water,very soluble in water
